Test results taken from PubChem BioAssay AID2060499 (Molecular Pharmacology Branch, DTP, NCI, 2025).

System: 777334-354-R2-J4-PDC tumor spheroids with HUVEC/MSC, viability
Test: Anticancer human tumor 777334-354-R2-J4-PDC patient-derived pancreatic adenocarcinoma cell line growth inhibition [GQUAD]
Conditions: for IC50: curve of first compound; for viability, T/C: stronger effect = lower value; active means viability on the fitted dose curve at most 10% of control; inactive means the rest
In short: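 Viability of tumor cells grown as complex spheroids with endothelial and stromal cells, exposed to drug combinations. Top concentration at or near clinical Cmax (else 10 microM), diluted in half-log increments.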

[1] = second compound 0.0316 µM, first compound 0.0316 µM
[2] = second compound 0.0316 µM, first compound 0.1 µM
[3] = second compound 0.0316 µM, first compound 0.316 µM
[4] = second compound 0.0316 µM, first compound 1 µM
[5] = second compound 0.0316 µM, first compound 3.16 µM
[6] = second compound 0.0316 µM, first compound 10 µM
[7] = second compound 0.1 µM, first compound 0.0316 µM
[8] = second compound 0.1 µM, first compound 0.1 µM
[9] = second compound 0.1 µM, first compound 0.316 µM
[10] = second compound 0.1 µM, first compound 1 µM
[11] = second compound 0.1 µM, first compound 3.16 µM
[12] = second compound 0.1 µM, first compound 10 µM
[13] = second compound 0.316 µM, first compound 0.0316 µM
[14] = second compound 0.316 µM, first compound 0.1 µM
[15] = second compound 0.316 µM, first compound 0.316 µM
[16] = second compound 0.316 µM, first compound 1 µM
[17] = second compound 0.316 µM, first compound 3.16 µM
[18] = second compound 0.316 µM, first compound 10 µM
[19] = second compound 1 µM, first compound 0.0316 µM
[20] = second compound 1 µM, first compound 0.1 µM
[21] = second compound 1 µM, first compound 0.316 µM
[22] = second compound 1 µM, first compound 1 µM
[23] = second compound 1 µM, first compound 3.16 µM
[24] = second compound 1 µM, first compound 10 µM
[25] = second compound 3.16 µM, first compound 0.0316 µM
[26] = second compound 3.16 µM, first compound 0.1 µM
[27] = second compound 3.16 µM, first compound 0.316 µM
[28] = second compound 3.16 µM, first compound 1 µM
[29] = second compound 3.16 µM, first compound 3.16 µM
[30] = second compound 3.16 µM, first compound 10 µM
[31] = second compound 10 µM, first compound 0.0316 µM
[32] = second compound 10 µM, first compound 0.1 µM
[33] = second compound 10 µM, first compound 0.316 µM
[34] = second compound 10 µM, first compound 1 µM
[35] = second compound 10 µM, first compound 3.16 µM
[36] = second compound 10 µM, first compound 10 µM
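Further: spheroids exposed to compounds for 7 days before readout.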

O=C(c1cc(Cc2n[nH]c(=O)c3ccccc23)ccc1F)N1CCN(C(=O)C2CC2)CC1 + Cc1[nH]c2ccc(F)cc2c1-c1nc2c3cccnc3c3ncccc3c2[nH]1
> 10000 nM: IC50 (second compound 0.0316 µM) | IC50 (second compound 0.1 µM) | IC50 (second compound 0.316 µM) | IC50 (second compound 1 µM)
inactive: viability, T/C [1] 95.4% | viability, T/C [2] 95.8% | viability, T/C [3] 102% | viability, T/C [4] 98.7% | viability, T/C [5] 93.6% | viability, T/C [6] 83.1% | viability, T/C [7] 98.6% | viability, T/C [8] 98.9% | viability, T/C [9] 99.5% | viability, T/C [10] 92.5% | viability, T/C [11] 103% | viability, T/C [12] 78.7% | viability, T/C [13] 99.2% | viability, T/C [14] 98.7% | viability, T/C [15] 95.1% | viability, T/C [16] 103% | viability, T/C [17] 106% | viability, T/C [18] 76% | viability, T/C [19] 75.5% | viability, T/C [20] 89.7% | viability, T/C [21] 91.6% | viability, T/C [22] 82.9% | viability, T/C [23] 89.2% | viability, T/C [24] 82.5% | viability, T/C [25] 37.8% | viability, T/C [26] 39.2% | viability, T/C [27] 36.4% | viability, T/C [28] 38.2% | viability, T/C [29] 43% | viability, T/C [30] 32.8% | viability, T/C [31] 24.9% | viability, T/C [32] 35.9% | viability, T/C [33] 39% | viability, T/C [34] 33.7% | viability, T/C [35] 36.5% | viability, T/C [36] 33%
< 31.6 nM: IC50 (second compound 3.16 µM) | IC50 (second compound 10 µM)

CC1COCCN1c1cc(-c2ccnn2C)c2ccnc(-c3ccn[nH]3)c2n1 (stereo unspecified) + Cc1cnc(CNC(=O)c2c(=O)c3ccc(N4CCCN(C)CC4)nc3n3c2sc2ccccc23)cn1
inactive: viability, T/C [1] 73.2% | viability, T/C [2] 50.8% | viability, T/C [3] 45.5% | viability, T/C [4] 41.7% | viability, T/C [5] 43.1% | viability, T/C [6] 34.5% | viability, T/C [7] 59.8% | viability, T/C [8] 51.3% | viability, T/C [9] 47.8% | viability, T/C [10] 41.9% | viability, T/C [11] 44.1% | viability, T/C [12] 28.7% | viability, T/C [13] 56% | viability, T/C [14] 59.3% | viability, T/C [15] 48.6% | viability, T/C [16] 41.8% | viability, T/C [17] 38.6% | viability, T/C [18] 26.9% | viability, T/C [19] 48.3% | viability, T/C [20] 44.1% | viability, T/C [21] 52.8% | viability, T/C [22] 41.8% | viability, T/C [23] 36.2% | viability, T/C [24] 27.5% | viability, T/C [25] 44.5% | viability, T/C [26] 41% | viability, T/C [27] 41.7% | viability, T/C [28] 41.3% | viability, T/C [29] 29.6% | viability, T/C [30] 20% | viability, T/C [31] 42.8% | viability, T/C [32] 39.8% | viability, T/C [33] 44.7% | viability, T/C [34] 36.9% | viability, T/C [35] 32.5% | viability, T/C [36] 21.2%
240 nM: IC50 (second compound 0.1 µM)
< 31.6 nM: IC50 (second compound 1 µM) | IC50 (second compound 3.16 µM) | IC50 (second compound 10 µM)
143 nM: IC50 (second compound 0.0316 µM)
331 nM: IC50 (second compound 0.316 µM)

C=CC(=O)N1CCN(c2nc(=O)n(-c3c(C)ccnc3C(C)C)c3nc(-c4c(O)cccc4F)c(F)cc23)C(C)C1 (stereo unspecified) + Cc1[nH]c2ccc(F)cc2c1-c1nc2c3cccnc3c3ncccc3c2[nH]1
inactive: viability, T/C [1] 108% | viability, T/C [2] 86.6% | viability, T/C [3] 111% | viability, T/C [4] 95.7% | viability, T/C [5] 118% | viability, T/C [6] 114% | viability, T/C [7] 99.8% | viability, T/C [8] 89.5% | viability, T/C [9] 105% | viability, T/C [10] 91.3% | viability, T/C [11] 102% | viability, T/C [12] 120% | viability, T/C [13] 82.6% | viability, T/C [14] 91.8% | viability, T/C [15] 92% | viability, T/C [16] 108% | viability, T/C [17] 110% | viability, T/C [18] 97.1% | viability, T/C [19] 81.3% | viability, T/C [20] 79.8% | viability, T/C [21] 91.6% | viability, T/C [22] 91.5% | viability, T/C [23] 98.9% | viability, T/C [24] 94.3% | viability, T/C [25] 34.3% | viability, T/C [26] 44.6% | viability, T/C [27] 40.6% | viability, T/C [28] 41% | viability, T/C [29] 47% | viability, T/C [30] 40.4% | viability, T/C [31] 28.9% | viability, T/C [32] 31.5% | viability, T/C [33] 34.7% | viability, T/C [34] 22.7% | viability, T/C [35] 22.9% | viability, T/C [36] 46.4%
> 10000 nM: IC50 (second compound 0.0316 µM) | IC50 (second compound 0.1 µM) | IC50 (second compound 0.316 µM) | IC50 (second compound 1 µM)
< 31.6 nM: IC50 (second compound 3.16 µM) | IC50 (second compound 10 µM)
